According to patent US20090060944A1, “Enhancer Of The Effect Of Adrenocorticoid,Comprising Gum Arabic” (priority 2004, published 2009):

How the values were obtained:
Assay type in all cases: in vivo, Male Wistar strain rats
[1] = system: GM-induced nephritis rats; experiment: Urine volume and urinary protein in GM-induced nephritis rats; details: 8th day; for Effect on urinary protein (in words) / Effect on urine volume (in words): GM-induced nephritis rats; for Urinary protein / Urine volume: mean ± S.E. of 8 to 9 rats, 7.5% GA via drinking water
Experimental: (§1) Gum Arabic was dissolved in water and filtered. The filtrate was spray-dried at about 120° C. to give the GA used in this experiment. GA was dissolved in tap water to prepare a 7.5% GA solution (7.5 g/100 mL, 7.5% GA). The 7.5% GA solution was used for oral administration in drinking water. Gentamicin sulfate (GM) was purchased from Sigma Chemical Co. and used as its saline solution. Prednisolone (PRD) was purchased from Sigma Chemical Co.
(§2) Male Wistar strain rats weighing 200-220 g (n=8 to 9 per group) were provided by SLC (Japan SLC, Hamamatsu). They were maintained in an air-conditioned room with lighting from 7 a.m. to 7 p.m. The room temperature (about 23° C.) and humidity (about 60%) were controlled automatically. They were kept for one week before treatment. Laboratory chows (Labo MR Stock, Nihon Nosan Kogyo K.K., Yokohama) and drinking water were freely available.
(§3) Nephritis was induced in rats by daily intraperitoneal injections of GM (80 mg/kg, i.p.) at 10:00 a.m. for 8 consecutive days. Animals injected with saline (1 mL/kg, i.p.) served as normal control. GA (7.5% GA) via the drinking water was administered for 8 consecutive days.
(§4) Rats were randomly assigned to the following eight groups of 8 to 9 rats each:
(§5) Group 1 (Normal): received daily intraperitoneal injections of saline (1 mL/kg, i.p.) for 8 days with tap water as drinking water.
(§6) Group 2 (7.5% GA): received daily saline (1 mL/kg, i.p.) and 7.5% GA via drinking water for 8 days.
(§7) Group 3 (GM): received daily GM (80 mg/kg, i.p.) for 8 days with tap water as drinking water.
(§8) Group 4 (GM+7.5% GA): received daily GM (80 mg/kg, i.p.) and 7.5% GA via the drinking water for 8 days.
(§9) Group 5 (GM+PRD/water): received daily PRD/water (2 mg/kg, p.o.) at 1 hr before daily GM (80 mg/kg, i.p.) administration for 8 days with tap water as drinking water.
(§10) Group 6 (GM+PRD/water+7.5% GA): received daily PRD/water (2 mg/kg, p.o.) at 1 hr before daily GM (80 mg/kg, i.p.) administration and 7.5% GA via the drinking water for 8 days.
(§11) 24 hr urine samples were obtained by keeping each animal in an individual metabolic cage for 24 hr at 10:00 a.m. on the 8th day. Rats were fasted for 1 day before urine collection. The collected urine was then centrifuged at 1,600×g for 10 min, and the supernatant was used for protein determination. Immediately after the urine collection, blood sample was taken from abdominal veins. The blood was centrifuged at 1,600×g for 10 min to give serum for the determination of blood urea nitrogen (BUN), serum creatinine and creatinine clearance.
(§12) The urinary protein excretion was determined by the method of Kingsbury et al (The Journal of Laboratory and Clinical Medicine, 11, 981-989, 1926) and expressed as mg/day. Briefly, a 3% solution of sulfosalicylic acid was added to a diluted urine sample, and placed at room temperature for 10 minutes. Then concentrations of urinary protein were determined from absorbance at 400 nm, and the urinary protein excretion (mg/day) was calculated from the volume of 24 hr urine. Commercial kits (Wako Pure Chemical Industries, Ltd.) were used to assay BUN, creatinine and creatinine clearance in serum with the following assay kits: Urea nitrogen B and Creatinine.
(§13) The experimental data were tested for statistical significant differences by means of Bonferroni/Dunn's method (Multiple Range Test).
(§14) PRD (2 mg/kg, p.o.) was orally administered in a form of suspension (0.2 mL/100 g weight of rat) in tap water (PRD/water) 1 hr before GM (80 mg/kg, i.p.) administration to rats of group 5 (GM+PRD/water) and group 6 (GM+PRD/water+7.5% GA). Group 5 received tap water as drinking water. Group 6 received 7.5% GA as drinking water.

[2] = system: GM-induced nephritis rats; experiment: BUN, serum creatinine and creatinine clearance in GM-induced nephritis rats; details: 8th day; for Effect on BUN level (in words): GM-induced nephritis rats; for BUN / Creatinine clearance / Serum creatinine: mean ± S.E. of 8 to 9 rats
Experimental: as §1, §2, §3, §4, §5, §6, §7, §8, §9, §10, §11, §12, §13, §14

[3] = system: GM-induced nephritis rats; experiment: Organ wet weight / body weight ratio in GM-induced nephritis rats; details: for Adrenal gland weight / Kidney weight / Liver weight / Spleen weight / Thymus weight: 8th day, mean ± S.E. of 8 to 9 rats, GM 80 mg/kg i.p., 7.5% GA via drinking water
Experimental: as §1, §2, §3, §4, §5, §6, §7, §8, §9, §10
On the last day, the organs (adrenal gland, thymus, spleen, kidney and liver) were isolated from the rats, and the ratio of each organ wet weight (mg)/body weight (100 g) was determined.
as §13, §14

[4] = Table 2, GM 80 mg/kg i.p. 8 days, 7.5% GA group got saline, no GM
[5] = Table 5, GM 80 mg/kg i.p., PRD 2 mg/kg p.o. 1 hr before GM
[6] = Table 1, GM 80 mg/kg i.p. 8 days, 7.5% GA via drinking water, 7.5% GA group got saline, no GM
[7] = Table 4, GM 80 mg/kg i.p., PRD 2 mg/kg p.o. 1 hr before GM, 7.5% GA via drinking water

For `C[C@]12C=CC(=O)C=C1CC[C@@H]1[C@@H]2[C@@H](O)C[C@@]2(C)[C@H]1CC[C@]2(O)C(=O)CO` [PRD, Prednisolone], the “Effect on urinary protein (in words)” value [1] was “significantly inhibited the increment of urinary protein”, the “Effect on urine volume (in words)” value [1] was “did not show any effects on the increment of urine volume” and the “Effect on BUN level (in words)” value [2] was “significant protective effect on increments of BUN level”. The “Effect on weight of thymus (in words)” value ([3]; rat, in vivo) was “further decreased”.
For Gentamicin sulfate [GM], the “Effect on urinary protein (in words)” value [1] was “increased”, the “Effect on urine volume (in words)” value [1] was “increased” and the Urinary protein [1, 4] was 26.7 ± 3.3 mg/24 hr. The Urine volume [1, 4] was 43.1 ± 4.3 mL/24 hr, the Urinary protein [1, 5] was 26.7 ± 3.3 mg/24 hr and the Urine volume [1, 5] was 43.1 ± 4.3 mL/24 hr. For the same molecule, the “Effect on BUN level (in words)” value [2] was “markedly increased”, the BUN ([2]; Table 1, GM 80 mg/kg i.p. 8 days, 7.5% GA via drinking water 8 days, 7.5% GA group got saline, no GM) was 78.0 ± 11.9 mg/dL and the Creatinine clearance [2, 6] was 0.19 ± 0.10 mL/min. The Serum creatinine [2, 6] was 2.36 ± 0.41 mg/dL, the BUN [2, 7] was 78.0 ± 11.9 mg/dL and the Creatinine clearance [2, 7] was 0.19 ± 0.10 mL/min. For the same molecule, the Serum creatinine [2, 7] was 2.36 ± 0.41 mg/dL, the “Effect on kidney weight ratio (in words)” value ([3]; GM-induced nephritis rats, last day) was “slightly increased” and the “Effect on weight of thymus (in words)” value ([3]; GM-induced nephritis rats, last day, side-effect of PRD) was “tendency to decrease”. For the same molecule, the Adrenal gland weight ([3]; Table 3) was 23.5 ± 1.4 mg/100 g of body weight, the Kidney weight ([3]; Table 3) was 0.89 ± 0.03 g/100 g of body weight and the Liver weight ([3]; Table 3) was 2.95 ± 0.07 g/100 g of body weight. The Spleen weight ([3]; Table 3) was 209.4 ± 10.8 mg/100 g of body weight, the Thymus weight ([3]; Table 3) was 223.5 ± 15.2 mg/100 g of body weight and the Adrenal gland weight ([3]; Table 6, PRD 2 mg/kg p.o.) was 23.5 ± 1.4 mg/100 g of body weight. The Kidney weight ([3]; Table 6, PRD 2 mg/kg p.o.) was 0.89 ± 0.03 g/100 g of body weight, the Liver weight ([3]; Table 6, PRD 2 mg/kg p.o.) was 2.95 ± 0.07 g/100 g of body weight and the Spleen weight ([3]; Table 6, PRD 2 mg/kg p.o.) was 209.4 ± 10.8 mg/100 g of body weight. The Thymus weight ([3]; Table 6, PRD 2 mg/kg p.o.) was 223.5 ± 15.2 mg/100 g of body weight.
